Laboratory results taken from patent publication US10030064B2, “Mammalian cell culture processes for protein production” (priority 2009, dated 2018).
Read-outs that look alike come from different tables or passages of the source.

Tests used:
[1] = tested on: purified IgG-fusion proteins; conditions: Tris-acetate buffer pH 7.5, 37° C., 1 h
Experimental: Reduced glutathione (GSH) at 0, 1 and 3 mM final concentrations was added to Tris-acetate buffered (pH 7.5) solution of purified IgG-fusion proteins, and the mixture of GSH and proteins was incubated at 37° C. for 1 h before SEC-HPLC analysis.
SEC analysis was performed according to the previously published method (Perico et al., 2008) with some modifications. Briefly, the Protein-A purified samples were run on an Agilent 1100 HPLC system (Agilent Technologies, Inc., Palo Alto, Calif.) on Tosoh Bioscience TSK-Gel G3000 SWxl column (7.8 ID×30 cm, 5 μm particles). The mobile phase contained 1× Phosphate Buffered Saline (PBS) at pH 7.4. The flow rate was 0.5 mL/min, and column temperature was controlled at 25° C. The signal was monitored by absorbance at wavelength of 280 nm.
To determine if GSH itself could affect protein aggregation by directly interacting with the proteins, we did in vitro study by adding GSH to Protein-A purified IgG-fusion proteins that were reconstituted in Tris-acetate buffer, and analyzed SEC profiles.

[2] = tested on: CHO cells; experiment: Shake flask CHO culture in serum free medium: viable cell density, viability, growth rate, productivity (Example 3); format: cell-based, Chinese hamster; conditions: for final viability: over 0.1 to 10 μM; for Final VCD / Peak VCD / Viability (final, day 10): added two days after inoculation
Experimental: The CHO cell line used in this study was subcloned from DG44 parental cells and cultured in a proprietary chemically-defined growth medium.
The experiments were carried out in 250-mL shake flasks (VWR international) with starting volumes of 100 mL and initial cell densities of 6×10^5 cells/mL. The cultures were placed on a shaker platform (VWR international) at 150 rpm and maintained at 37° C. and 6% CO2 for ten days. The cultures were sampled daily and the pH adjustment using 1M sodium carbonate, and fed with glucose and glutamine every two days in order to maintain them at certain levels. Cell density and viability were measured off-line a Bioprofile Analyzer 400 (Nova Biomedical Corporation, Waltham, Mass.).
The eluted protein was quantified using a 10-level standard curve.

[3] = tested on: GILZ; experiment: Western blot of GILZ protein in CHO cells; format: cell-based, Chinese hamster; conditions: in the presence of 1 μM RU-486
Experimental: Approximately 10^7 CHO cells were washed with 1× phosphate buffered saline (PBS) solution, lysed with 1 mL of Laemmli sample buffer (Bio-Rad Laboratories, Hercules, Calif.), and then denatured at 90° C. for 5 minutes. […] Membranes were stripped and re-probed with β-actin antibody (Santa Cruz Biotechnology) and an HRP-conjugated anti-mouse secondary antibody. Immunodetection was performed with the enhanced chemiluminescence Western blotting detection system (GE Healthcare UK Limited Little Chalfont, Buckinghamshire, UK) and visualized with a VersaDoc Imaging System (Bio-Rad Laboratories, Hercules, Calif.).
The blot was also reprobed with the beta-actin antibody as a control to assess equivalent gel loading.

[4] = tested on: glutathione reductase; experiment: Western blot of glutathione reductase in CHO cells; format: cell-based, Chinese hamster; conditions: 1 μM RU-486 added one day before 0.1 μM DEX
Experimental: After being washed with 1×PBS, approximately 10^7 CHO cells were lysed with 1 mL of Laemmli sample buffer (Bio-Rad Laboratories) and denatured at 90° C. for 5 minutes. The whole cell lysates were separated on a 4-15% SDS-polyacrylamide gel, blotted to 0.45 μm nitrocellulose membranes (Bio-Rad Laboratories), and probed with primary antibodies and secondary antibody. The primary antibody for detection of glutathione reductase was the monoclonal antibody raised against amino acids 391-510 mapping near the C-terminus of glutathione reductase of human origin (Santa Cruz Biotechnology, Santa Cruz, Calif.). […] The primary antibody used for detection of glucocorticoid receptor was anti-human monoclonal antibody (Santa Cruz Biotechnology, Santa Cruz, Calif.). The secondary antibody was horseradish peroxidase (HRP)-conjugated anti-mouse antibody (Santa Cruz Biotechnology, Santa Cruz, Calif.). Membranes were stripped and re-probed with β-actin antibody (Santa Cruz Biotechnology) and HRP-conjugated secondary antibody. Immunodetection was performed with the enhanced chemiluminescence Western blotting detection system (GE Healthcare) and visualized with VersaDoc Imaging System (Bio-Rad Laboratories).
A Western Blot was performed to detect glutathione reductase expression in the whole cell lysates prepared from the CHO cells treated with various concentrations of DEX. […]

[5] = tested on: CHO cells; experiment: Preliminary experiment: RU-486 on CHO cell viability, growth and metabolic parameters; format: cell-based, Chinese hamster
From the text: RU-486 is a GR antagonist and often used as a tool drug in many GR related studies.

## N[C@@H](CCC(=O)N[C@@H](CS)C(=O)NCC(=O)O)C(=O)O [GSH, Reduced glutathione]
[1]; 1 mM GSH
  reduction rate of percentage of high molecular weight species: 15.3%
[1]; 3 mM GSH
  reduction rate of percentage of high molecular weight species: 27.3%

## C[C@]12CCC(=O)C=C1CC[C@@H]1[C@@H]2[C@@H](O)C[C@@]2(C)[C@H]1CC[C@]2(O)C(=O)CO [HYC, hydrocortisone]
[2]
  final viability: 60.1-75.5%
[2]; treatment concentration 0.1 μM
  Final VCD: 7.86 ×10^6 cells/mL
  Peak VCD: 10.06 ×10^6 cells/mL
  Viability (final, day 10): 60.1%
[2]; treatment concentration 1 μM
  Final VCD: 8.15 ×10^6 cells/mL
  Peak VCD: 9.51 ×10^6 cells/mL
  Viability (final, day 10): 65.1%
[2]; treatment concentration 10 μM
  Final VCD: 7.80 ×10^6 cells/mL
  Peak VCD: 8.44 ×10^6 cells/mL
  Viability (final, day 10): 75.5%

## C[C@]12C=CC(=O)C=C1CC[C@@H]1[C@@H]2[C@@H](O)C[C@@]2(C)[C@H]1CC[C@]2(O)C(=O)CO [PRD, prednisolone]
[2]
  final viability: 69.4-75.5%
[2]; treatment concentration 0.1 μM
  Final VCD: 8.26 ×10^6 cells/mL
  Peak VCD: 8.99 ×10^6 cells/mL
  Viability (final, day 10): 69.4%
[2]; treatment concentration 1 μM
  Final VCD: 8.79 ×10^6 cells/mL
  Peak VCD: 9.25 ×10^6 cells/mL
  Viability (final, day 10): 76.8%
[2]; treatment concentration 10 μM
  Final VCD: 8.27 ×10^6 cells/mL
  Peak VCD: 8.05 ×10^6 cells/mL
  Viability (final, day 10): 77.5%

## CC#C[C@]1(O)CC[C@H]2[C@@H]3CCC4=CC(=O)CCC4=C3[C@@H](c3ccc(N(C)C)cc3)C[C@@]21C [RU-486, mifepristone]
[3]
  DEX-induced overexpression of GILZ protein: significantly decreased
[4]
  up-regulatory effect of DEX on glutathione reductase expression: attenuated
[5]; RU-486 at 10 μM
  effect on cell viability and cell growth rate: significant decrease
[5]; RU-486 concentrations not higher than 1 μM
  effect on CHO cell viability and metabolic parameters: did not affect
